Experimental data reported in article PMC11876671, “Investigating blood–brain barrier penetration and neurotoxicity of natural products for central nervous system drug development” (Scientific Reports, 2025).
Structures can show the parent of a compound that is named as a salt.

test: in vitro; details: PAMPA, PAMPA-BBB Pe(10^-6 cm/sec)

| SMILES | Papp |
| --- | --- |
| C[C@]12C=CC(=O)C=C1[C@@H](F)C[C@@H]1[C@@H]2[C@@H](O)C[C@@]2(C)[C@H]1CC[C@]2(O)C(=O)CO [FLUPREDNISOLONE] | 1.9 ×10⁻⁶ cm/s |
| CC(=O)OCC(=O)[C@@]1(O)CC[C@H]2[C@@H]3CCC4=CC(=O)CC[C@]4(C)[C@H]3[C@@H](O)C[C@@]21C [HYDROCORTISONE ACETATE] | < 1 ×10⁻⁶ cm/s |
| Oc1ccc(O)cc1 [HYDROQUINONE] | < 1 ×10⁻⁶ cm/s |
| Nc1nc(=O)[nH]c2c1ncn2[C@@H]1O[C@H](CO)[C@@H](O)[C@H]1O [ISOGUANOSINE] | < 1 ×10⁻⁶ cm/s |
| CC1=C(/C=C/C(C)=C/C=C/C(C)=C\C(=O)O)C(C)(C)CCC1 [ISOTRETINOIN] | 8.7 ×10⁻⁶ cm/s |
| Oc1cc(O)c2c(c1)O[C@H](c1ccc(O)c(O)c1)[C@H](O)C2 [L-EPICATECHIN] | < 1 ×10⁻⁶ cm/s |

same assay, conditions: PAMPA, PAMPA-BBB Pe(10^-6 cm/sec), Table S3: compounds exhibiting low PAMPA-BBB permeability

| SMILES | Papp |
| --- | --- |
| C[C@H]([C@H](O)CCC(C)(C)O)[C@H]1CC[C@@]2(O)C3=CC(=O)[C@@H]4C[C@@H](O)[C@@H](O)C[C@]4(C)[C@H]3CC[C@]12C [ECDYSONE] | < 1 ×10⁻⁶ cm/s |
| O=C(O[C@@H]1Cc2c(O)cc(O)cc2O[C@@H]1c1ccc(O)c(O)c1)c1cc(O)c(O)c(O)c1 [EPICATECHIN GALLATE] | < 1 ×10⁻⁶ cm/s |
| C=C1CC[C@H](O)C/C1=C/C=C1\CCC[C@]2(C)[C@@H]([C@H](C)/C=C/[C@H](C)C(C)C)CC[C@@H]12 [ERGOCALCIFEROL] | < 1 ×10⁻⁶ cm/s |
| C[C@]12CC[C@@H]3c4ccc(O)cc4CC[C@H]3[C@@H]1C[C@@H](O)[C@@H]2O [ESTRIOL] | < 1 ×10⁻⁶ cm/s |
| CCCCC/C=C\C=C\C(=O)OCC [ETHYL TRANS-2,CIS-4-DECADIENOATE] | < 1 ×10⁻⁶ cm/s |
| Clc1ccc([C@@H]2C[C@H]3CC[C@@H]2N3)cn1 [Epibatidine dihydrochloride] | 5.9 ×10⁻⁶ cm/s |
| CC(C)=CCC/C(C)=C/CC/C(C)=C/CO [FARNESOL TRANS,TRANS-FARNESOL] | < 1 ×10⁻⁶ cm/s |
| O=C(C[C@H]1NCCC[C@@H]1O)Cn1cnc2ccccc2c1=O [FEBRIFUGINE] | < 1 ×10⁻⁶ cm/s |
| COc1cc(/C=C/C(=O)O)ccc1O [FERULIC ACID] | 1.2 ×10⁻⁶ cm/s |
| CCC(=O)c1c(O)cc(O)cc1O [FLOPROPIONE] | 2.8 ×10⁻⁶ cm/s |
| Cc1cc(O)c(C=O)c2c1C(=O)Oc1c(COC(=O)/C=C/C(=O)O)c(O)c(C(=O)O)c(C)c1O2 [FUMARPRO[…]] | < 1 ×10⁻⁶ cm/s |
| CCCCc1ccc(C(=O)O)nc1 [FUSARIC ACID] | < 1 ×10⁻⁶ cm/s |
| O=C(O)c1cc(O)c(O)c(O)c1 [GALLIC ACID] | < 1 ×10⁻⁶ cm/s |
| O=C(O[C@@H]1Cc2c(O)cc(O)cc2O[C@H]1c1cc(O)c(O)c(O)c1)c1cc(O)c(O)c(O)c1 [GALLOCATECHIN GALLATE, (-)-] | < 1 ×10⁻⁶ cm/s |
| Oc1cc(O)c2c(c1)O[C@H](c1cc(O)c(O)c(O)c1)[C@@H](O)C2 [GALLOCATECHIN] | < 1 ×10⁻⁶ cm/s |
| CC(=O)O[C@@H]1C[C@H]2C(C)(C)C(=O)C=C[C@]2(C)[C@H]2CC[C@@]3(C)[C@H](c4ccoc4)OC(=O)[C@H]4O[C@]43[C@@]21C [GEDUNIN] | < 1 ×10⁻⁶ cm/s |
| COC1=C2C[C@@H](C)C[C@H](OC)[C@H](O)[C@@H](C)/C=C(\C)[C@H](OC(N)=O)[C@@H](OC)/C=C\C=C(/C)C(=O)NC(=CC1=O)C2=O [GELDANAMYCIN] | < 1 ×10⁻⁶ cm/s |
| COC(=O)C1=CO[C@@H](O)[C@@H]2C(CO)=CC[C@H]12 [GENIPIN] | < 1 ×10⁻⁶ cm/s |
| Nc1nc2c(ncn2[C@@H]2O[C@H](COP(=O)(O)OP(=O)(O)O)[C@@H](O)[C@H]2O)c(=O)[nH]1 [Guanosine pyrophosphate] | < 1 ×10⁻⁶ cm/s |
| C[C@]1(OC(=O)/C=C/c2ccccc2)C[C@@H](O)[C@]2(O)C=CO[C@@H](O[C@@H]3O[C@H](CO)[C@@H](O)[C@H](O)[C@H]3O)[C@@H]21 [HARPAGOSIDE] | < 1 ×10⁻⁶ cm/s |
| COC(=O)C[C@](O)(CCC(C)(C)O)C(=O)O[C@@H]1C(OC)=C[C@]23CCCN2CCc2cc4c(cc2[C@H]13)OCO4 [HARRINGTONINE] | < 1 ×10⁻⁶ cm/s |
| C[C@@H]1CC[C@@]2(OC1)O[C@H]1C[C@H]3[C@@H]4CC[C@H]5C[C@@H](O)CC[C@]5(C)[C@H]4CC(=O)[C@]3(C)[C@H]1[C@@H]2C [HECOGENIN] | < 1 ×10⁻⁶ cm/s |
| Cc1ncsc1CCO [HEMINEURINE] | < 1 ×10⁻⁶ cm/s |
| COc1ccc2cc1Oc1ccc(cc1)C[C@H]1c3cc(c(OC)cc3CCN1C)Oc1c(OC)c(OC)c(OC)c3c1[C@H](C2)N(C)CC3 [HERNANDEZINE] | 9.7 ×10⁻⁶ cm/s |

| SMILES | Papp |
| --- | --- |
| O=c1cc(O)cc(/C=C/c2ccc(O)c(O)c2)o1 [HISPIDIN] | < 1 ×10⁻⁶ cm/s |
| C/C=C1\[C@H]2C=C(C)C[C@]1(N)c1ccc(=O)[nH]c1C2 [HUPERZINE A] | 8.1 ×10⁻⁶ cm/s |
| O=C(O)Cc1c[nH]c2ccc(O)cc12 [HYDROXYIN[…]] | < 1 ×10⁻⁶ cm/s |
| Cc1cccc(C(=O)O)c1O [HYDROXYTOLUIC ACID] | < 1 ×10⁻⁶ cm/s |
| Cc1cc(=O)oc2cc(O)ccc12 [HYMECROMONE] | 9.9 ×10⁻⁶ cm/s |
| Cc1cc(O)c2c(=O)c3c(O)cc(O)c4c5c(O)cc(O)c6c(=O)c7c(O)cc(C)c8c1c2c(c34)c(c78)c65 [HYPERICIN] | 6.4 ×10⁻⁶ cm/s |
| O=c1c(O[C@@H]2O[C@H](CO)[C@H](O)[C@H](O)[C@H]2O)c(-c2ccc(O)c(O)c2)oc2cc(O)cc(O)c12 [HYPEROSIDE] | 1.6 ×10⁻⁶ cm/s |
| CSCCCN=C=S [IBERVERIN] | 9.7 ×10⁻⁶ cm/s |
| CC/C=C\C/C=C\C/C=C\C/C=C\C/C=C\CCCC(=O)OCC [ICOSAPENT ETHYL] | < 1 ×10⁻⁶ cm/s |
| O=C(O)CCCc1c[nH]c2ccccc12 [IND[…]] | < 1 ×10⁻⁶ cm/s |
| COc1cc(-c2coc3cc(O[C@@H]4O[C@H](CO)[C@@H](O)[C@H](O)[C@H]4O)c(OC)c(O)c3c2=O)cc(O)c1OC [IRIDIN] | 1.3 ×10⁻⁶ cm/s |
| COC(=O)/C=C/C(C)=C/C=C/C(C)=C/C=C/C=C(C)/C=C/C=C(C)/C=C/C(=O)O [ISOBIXIN] | 4.2 ×10⁻⁶ cm/s |
| CC/C=C\CC1=C(C)CCC1=O [JASMONE] | < 1 ×10⁻⁶ cm/s |
| O=C1C=CC(=O)c2c(O)cccc21 [JUGLONE] | 4.1 ×10⁻⁶ cm/s |
| C[C@@]12C=Cc3occc3[C@H]1CC[C@@]13C[C@@H](CC[C@H]12)[C@@](O)(CO)C3 [KAHWEOL] | < 1 ×10⁻⁶ cm/s |
| C[C@H]1O[C@H](O[C@H]2[C@H](O)[C@@H](O)[C@@H](O)[C@H](O)[C@@H]2O)[C@@H](N)C[C@@H]1NC(=N)C(=O)O [KASUGAMYCIN HYDROCHLORIDE] | < 1 ×10⁻⁶ cm/s |
| C[C@@H]1CC[C@]2(C)CC[C@]3(C)C(=CC(=O)C4[C@@]5(C)CC[C@@H](O)[C@](C)(C(=O)O)C5CC[C@]43C)C2[C@H]1C (stereo partly drawn) [KETO-B-BOSWELLIC ACID] | < 1 ×10⁻⁶ cm/s |
| c1coc(CNc2ncnc3[nH]cnc23)c1 [KINETIN] | 4 ×10⁻⁶ cm/s |
| NCCC(=O)c1ccccc1N [KYNURAMINE] | 2.4 ×10⁻⁶ cm/s |
| O=c1cc(-c2ccc(O)cc2)oc2cc(O)ccc12 [K[…]] | 2.9 ×10⁻⁶ cm/s |
| N[C@@H](Cc1cc(I)c(O)c(I)c1)C(=O)O [L-DIIODOTYROSINE] | < 1 ×10⁻⁶ cm/s |
| COc1cc2c(cc1O)C[C@@H]1NCCc3cc(OC)c(OC)c-2c31 [LAUROTETANINE] | < 1 ×10⁻⁶ cm/s |
| Cc1cc(OC(=O)c2c(C)cc(O)cc2O)cc(O)c1C(=O)O [LECANORIC ACID] | < 1 ×10⁻⁶ cm/s |

same assay, conditions: PAMPA, PAMPA-BBB Pe, Table S2: compounds exhibiting moderate to high PAMPA-BBB permeability

| SMILES | Papp |
| --- | --- |
| CN1CC(CO)=C[C@H]2c3cccc4[nH]cc(c34)C[C@H]21 [ELYMOCLAVINE] | 17 ×10⁻⁶ cm/s |
| CCOC(=O)/C=C/c1ccccc1 [ETHYL CINNAMATE] | 110 ×10⁻⁶ cm/s |
| CCOC(=O)c1ccc(O)cc1 [ETHYL HYDROXYBENZOATE] | 43 ×10⁻⁶ cm/s |
| CCOC(=O)c1c(C)cc(O)cc1O [ETHYL ORSELLINATE] | 137 ×10⁻⁶ cm/s |
| C=CCc1ccc(O)c(OC)c1 [EUGENOL] | 116 ×10⁻⁶ cm/s |
| C=C(C)c1cc2cc(C(C)=O)c(O)cc2o1 [EUPARIN] | 125 ×10⁻⁶ cm/s |
| COc1ccc(-c2cc(=O)c3c(O)c(OC)c(OC)cc3o2)cc1O [EUPATORIN] | 281 ×10⁻⁶ cm/s |
| O=c1c(O)c(-c2ccccc2)oc2ccccc12 [FLAVONOL] | 181 ×10⁻⁶ cm/s |
| COc1ccc(-c2coc3cc(O)ccc3c2=O)cc1 [FORMONONETIN] | 97 ×10⁻⁶ cm/s |
| O=Cc1ccco1 [FURFURAL] | 46 ×10⁻⁶ cm/s |
| COc1cc(OC)c(OC)cc1C=O [GAZARIN] | 64 ×10⁻⁶ cm/s |
| C=C[C@]12CN(C)[C@@H]3[C@H]4CO[C@H](C[C@H]41)[C@]1(C(=O)Nc4ccccc41)[C@@H]32 [GELSEMINE] | 13 ×10⁻⁶ cm/s |
| O=c1c(-c2ccc(O)cc2)coc2cc(O[C@@H]3O[C@H](CO)[C@@H](O)[C@H](O)[C@H]3O)cc(O)c12 [GENISTIN] | 29 ×10⁻⁶ cm/s |
| COc1cc(-c2oc3cc(O)ccc3c(=O)c2O)ccc1O [GERALDOL] | 124 ×10⁻⁶ cm/s |
| CCCCC[C@H](O)CC(=O)CCc1ccc(O)c(OC)c1 [GINGEROL] | 69 ×10⁻⁶ cm/s |
| CC1(C)O[C@@H]1COc1c2occc2cc2ccc(=O)oc12 [HERACLENIN] | 210 ×10⁻⁶ cm/s |

| SMILES | Papp |
| --- | --- |
| C=C[C@H]1CN2CCc3c([nH]c4ccccc34)[C@H]2C[C@@H]1/C(=C\OC)C(=O)OC [HIRSUTEINE] | 118 ×10⁻⁶ cm/s |
| COc1c2c(cc3c1OCO3)CCN(C)C2 [HYDROCOTARNINE HYDROBROMIDE] | 35 ×10⁻⁶ cm/s |
| CC[C@H]1CN2CC[C@H]1C[C@@H]2[C@@H](O)c1ccnc2ccc(OC)cc12 [HYDROQUINIDINE HYDROCHLORIDE] | 37 ×10⁻⁶ cm/s |
| CC(=O)[C@@]1(O)CC[C@H]2[C@@H]3CCC4=CC(=O)CC[C@]4(C)[C@H]3CC[C@@]21C [HYDROXYPROGESTERONE] | 110 ×10⁻⁶ cm/s |
| O=C(/C=C/c1ccccc1)NCCO [IDROCILAMIDE] | 211 ×10⁻⁶ cm/s |
| Oc1ccc(C2=Cc3ccc(O)cc3OC2)cc1 [IDRONOXIL] | 145 ×10⁻⁶ cm/s |
| OCc1c[nH]c2ccccc12 [INDOLE-3-CARBINOL] | 94 ×10⁻⁶ cm/s |
| COc1cc2c(cc1O)C[C@H]1c3c(cc(OC)c(O)c3-2)CCN1C [ISOBOLDINE] | 35 ×10⁻⁶ cm/s |
| COc1ccc2c(c1O)-c1c(OC)c(OC)cc3c1[C@H](C2)N(C)CC3 [ISOCORYDINE] | 74 ×10⁻⁶ cm/s |
| C=C[C@H]1CN2CC[C@@]3(C(=O)Nc4ccccc43)[C@@H]2C[C@@H]1/C(=C\OC)C(=O)OC [ISOCORYNOXEINE] | 37 ×10⁻⁶ cm/s |
| CC1(C)C2=CCCC(C)(C)[C@]23CC[C@H]1C3 [ISOLONGIFOLENE] | 87 ×10⁻⁶ cm/s |
| c1ccc2cnccc2c1 [ISOQUINOLINE] | 157 ×10⁻⁶ cm/s |
| COc1cc(-c2oc3cc(O)cc(O)c3c(=O)c2O)ccc1O [ISORHAMNETIN] | 528 ×10⁻⁶ cm/s |
| COC1=CC(=O)O[C@@H](/C=C/c2ccccc2)C1 [KAWAIN] | 114 ×10⁻⁶ cm/s |
| CC(C)=CCC[C@@H](C)[C@H]1CC[C@@]2(C)C3=C(CC[C@]12C)[C@@]1(C)CC[C@H](O)C(C)(C)[C@@H]1CC3 [LANOSTEROL] | 13 ×10⁻⁶ cm/s |
